For the assay, the system named is Plasmodium falciparum. In words: GSK_TCMDC: Inhibition of Plasmodium falciparum 3D7 in whole erythrocytes, using parasite LDH activity as an index of growth. It counts as functional, organism-based.

These results are taken from ChEMBL document CHEMBL1157539, “Thousands of chemical starting points for antimalarial lead identification” (Nature, 2010).

The structures appear in SMILES notation.

In turn, `O=C(NCCCCCN1CCC(c2c[nH]c3ccccc23)CC1)c1ccc(Cl)c(Cl)c1` gave an XC50 (Plasmodium falciparum, 3D7) of 1360 nM.
The same measure, in the same setting: the same measure for `CC1(C)NC(N)=NC(=N)N1OCCSCCON1C(=N)N=C(N)NC1(C)C`: 50.6 nM; for `O=C(Nc1ccc(Cn2ncc(N3CCCNCC3)c(Cl)c2=O)cc1)Nc1cc(F)cc(C(F)(F)F)c1`: 767 nM; for `CCc1cn2c3c(cc(C(=O)N[C@@H](Cc4cccc(Cl)c4)[C@H](O)CNC4CCCCC4)cc13)N(C)S(=O)(=O)CC2`: 57.1 nM.
The same measure, in the same setting: the figure for `COc1cc2c(C3CCN(CC4CCN(C(=O)/C=C/c5ccc(Cl)c(Cl)c5)CC4)CC3)c[nH]c2cn1` is 730 nM; for `O=C(NC1CCC(CCN2CCc3ccc(-c4cnccn4)cc3CC2)CC1)c1cccc(-n2cccn2)c1` (configuration not stated) it is 899 nM; for `Cc1cc2c3c(N)nc(N)nc3ccc2n1C(C)C` it is 8.52 nM.
The compound `COc1ccc(NC(=O)[C@H](Cc2ccccc2)Nc2cc(C)nc(NCCN3CCCC3)n2)cc1` showed an XC50 (Plasmodium falciparum, 3D7) of 1390 nM.
`Cc1nc(O)c2c(ccc3ccc(CNc4ccc(C(=O)N[C@@H](CCC(=O)O)C(=O)O)cc4)cc32)n1` yielded an XC50 (Plasmodium falciparum, 3D7) of 177 nM.
The same measure, in the same setting: the same measure for `CCCN1CCN(CC(O)CNC(=O)Nc2ccc(Cl)cc2)CC1` (configuration not stated): 96.9 nM; for `CCn1c(C=Cc2cc(Br)ccc2O)nc2ccccc2c1=O`: 654 nM.
Regarding `Cc1cccc2nc(-c3ccc(-c4cccc(CNCCNC(=O)c5ccnn5C)c4)s3)[nH]c12`, for the setting “Plasmodium falciparum, 3D7”, the XC50 worked out at 216 nM.
As for `COc1ccc(Cn2c(=O)[nH]c3cc(C(=O)NC4CCN(Cc5ccccc5)CC4)ccc3c2=O)cc1`, the XC50 (Plasmodium falciparum, 3D7) was found to be 751 nM.
For the compound `CN(Cc1cnc2nc(N)nc(N)c2n1)c1ccc(C(=O)N[C@@H](CCC(=O)O)C(=O)O)cc1` [METHOTREXATE], the XC50 was determined as 178 nM. For the same compound, the XC50 (Plasmodium falciparum, 3D7) is 100 nM.
Where the note is “Plasmodium falciparum, 3D7”, `CC(C)(C)c1ccc(C(=O)Nc2ccc3nc4c(c(N)c3c2)CCCC4)cc1` returned an XC50 of 175 nM.
Still for that read-out and setting: the figure for `COc1ccccc1N(C)CCNc1cc(C)nc(Nc2ccc(C)cc2)n1` is 1570 nM; for `CC(=O)Nc1cccc(CNCc2ccc(-c3cnc(N4CCCC(C)(C)C4)nc3)cc2)c1` it is 822 nM.
On to `CCN(CC)CCN(Cc1ccc(-c2ccc(C(F)(F)F)cc2)cc1)C(=O)Cn1nc(-c2ccc(C(F)(F)F)cc2)ccc1=O`, for which the XC50 (Plasmodium falciparum, 3D7) was 797 nM.
Turning to `CN(c1ccc(F)cc1)S(=O)(=O)c1ccc(Cl)c(C(=O)Nc2cccc(C#N)c2)c1`, the XC50 (Plasmodium falciparum, 3D7) turned out to be 699 nM.
Under “Plasmodium falciparum, 3D7”, `CCn1c(-c2nc(-c3ccnc(N4CCN(C)CC4)c3)cnc2N)nc2cc(S(C)(=O)=O)ccc21` showed an XC50 of 815 nM.
Same read-out and setting: the same measure for `O=C(/C=C/c1ccc(Cl)c(Cl)c1)NCCCCCCN1CCN(C(=O)Nc2ccc(OC(F)F)cc2)CC1`: 679 nM; for `COc1c(CNCCCCCCNCc2c(OC)c(OC)c3ccccc3c2OC)c(OC)c2ccccc2c1OC`: 956 nM; for `CCCc1cc(Cc2cnc(N)nc2N)cc(CCC)c1OCCCCC(=O)OCC`: 54.1 nM.
Regarding `OCCN1CCN(Cc2ccc(-c3ccc(-c4nc5ccccc5[nH]4)cc3)cc2)CC1`, the XC50 (Plasmodium falciparum, 3D7) came out at 616 nM.
The compound `O=C(/C=C/c1ccc(Cl)c(Cl)c1)N1CCC(CN2CCC(c3c[nH]c4ccc(NS(=O)(=O)c5cccs5)cc34)CC2)CC1` displayed an XC50 (Plasmodium falciparum, 3D7) of 218 nM.
On the same count and under the same terms, the same measure for `N#Cc1cccc(NC(=O)Nc2cccc(-c3ccc(-c4nc5cc(C(F)(F)F)ccc5[nH]4)cc3)c2)c1`: 247 nM.
Still for that read-out and setting: the figure for `O=C(Nc1cccc(-c2nc3ccccc3s2)c1)c1ccccc1[N+](=O)[O-]` is 767 nM; for `O=C(Nc1ccc([N+](=O)[O-])cc1Cl)c1cc2ccccc2cc1O` it is 1010 nM; for `CN(C)C(=O)O[C@@H]1CN[C@H](C#Cc2cc3ncnc(Nc4ccc5c(cnn5Cc5cccc(F)c5)c4)c3s2)C1` it is 759 nM.
`CN(c1cc(NC(=O)c2ccc(F)cc2)ccn1)C1CCN(Cc2cccc(F)c2)CC1` came in with an XC50 (Plasmodium falciparum, 3D7) of 495 nM.
Under “Plasmodium falciparum, 3D7”, `COc1ccc(CNc2ccc3nc(N)nc(N)c3c2)cc1` had an XC50 of 172 nM.
`C=C(C)C1CC=C(CN2CCCC(n3ccc4cc(NC(=O)c5ccco5)ccc43)CC2)CC1` (configuration not stated): for the setting “Plasmodium falciparum, 3D7”, the XC50 was determined as 753 nM.
On the same count and under the same terms, the same measure for `CCCN1CCN(Cc2ccc(C(=O)Nc3ccc(Cl)cc3)cc2)CC1`: 48.5 nM; for `O=C(c1ccco1)c1cn(CCOc2ccccc2)c2ccccc12`: 748 nM.
The same measure, in the same setting: the figure for `CCc1c(CCNCCCCCCNC(C)(C)Cc2ccc3c(c2CC)OCO3)ccc(OC)c1OC` is 934 nM; for `O=C(Nc1ccccc1C(F)(F)F)Nc1nn(Cc2c(F)cccc2Cl)cc1Br` it is 337 nM; for `Cc1ccc(O)cc1Nc1ccnc2cc(-c3nccs3)ccc12` it is 879 nM.
The same measure, in the same setting: the figure for `CCCC(C)NC(=O)C(N)Cc1cccc(I)c1` (configuration not stated) is 975 nM; for `Cc1cc(-c2ccc(S(=O)(=O)Nc3cc4c(cc3OC(C)C)CCN(C)CC4)cc2)ccc1Cl` it is 904 nM.
`Cc1nc(-c2cccc(Nc3nccc(NCC(O)c4ccccc4C)n3)c2)cs1` (configuration not stated): the XC50 (Plasmodium falciparum, 3D7) was found to be 890 nM.
Where the note is “Plasmodium falciparum, 3D7”, `Cc1noc(C)c1-c1cccc(CNCc2cccc(-c3ccc(-c4nc5cccc(C)c5[nH]4)s3)c2)c1` displayed an XC50 of 211 nM.
The same measure, in the same setting: the figure for `Cc1ccc2[nH]c(-c3ccccc3N)cc2c1` is 923 nM.
Turning to `CCCNCc1ccc(-c2ccc(CN(CCOC)C(=O)CCC(=O)c3ccc(OC)c(F)c3)cc2)nc1`, the XC50 (Plasmodium falciparum, 3D7) is 683 nM.
Under “Plasmodium falciparum, 3D7”, `NC1CCN(Cc2cccc(-c3ccc(-c4nc5ccccc5[nH]4)cc3)c2)C1` (configuration not stated) yielded an XC50 of 830 nM.
Turning to `CCN(CCCN1CCCCC1)c1cc(C)nc(Nc2ccc(C)c(C)c2)n1`, for the setting “Plasmodium falciparum, 3D7”, the XC50 turned out to be 1020 nM.
Where the note is “Plasmodium falciparum, 3D7”, `O=C(NC1CCC(CCN2Cc3ccc(Br)cc3C2)CC1)c1cccc(-c2cccnc2)c1` (configuration not stated) showed an XC50 of 927 nM.
Under “Plasmodium falciparum, 3D7”, `COc1cc(OC)cc(-c2nnc(Sc3ccc(C#N)c([N+](=O)[O-])c3)n2C)c1` had an XC50 of 937 nM.
On the same count and under the same terms, the figure for `CC(CCON1C(N)=NC(N)=NC1(C)C)c1ccc(Cl)c(Cl)c1` (configuration not stated) is 3.2 nM.
Still for that read-out and setting: the figure for `O=C(Nc1cccc(Cl)c1Cl)N[C@H]1CCN(CCCCCNC(=O)C2CC2c2ccc(Cl)c(Cl)c2)C1` (some centres not stated) is 1280 nM; for `CC(C)(C)C1CCC(C(=O)c2ccc3ccccc3c2O)CC1` (configuration not stated) it is 751 nM; for `N#Cc1ccc2c(c1)CCN(CCC1CCC(NC(=O)/C=C/c3cccc4cc[nH]c34)CC1)CC2` (configuration not stated) it is 1090 nM.
Same read-out and setting: the figure for `Oc1ccc(Cl)cc1-c1cc(C(F)(F)F)nc(-c2ccccc2)n1` is 753 nM.
As to `CCN(CC)CCN(Cc1ccc(-c2ccc(C(F)(F)F)cc2)cc1)C(=O)Cn1cc(Cc2cnn(C)c2)c(=O)nc1/C=C/c1cccc(F)c1F`, the XC50 (Plasmodium falciparum, 3D7) turned out to be 957 nM.
On the same count and under the same terms, the same measure for `CCOc1ccc2nc(C)cc(N/N=C/c3ccccc3[N+](=O)[O-])c2c1`: 29.6 nM; for `Fc1cccc(COc2ccc(Nc3ncnc4cc(/C=C/[C@@H]5CCCN5)sc34)cc2Cl)c1`: 592 nM; for `Fc1ccc2[nH]c(-c3cccc(-c4ccc(CNCCN5CCNCC5)cc4)c3)nc2c1`: 904 nM.
Still for that read-out and setting: the same measure for `NCC(NC(=O)c1ccc(-c2c[nH]c3ncccc23)s1)c1ccccc1` (configuration not stated): 546 nM; for `c1ccc(CN2CCN(CCCCNc3c4ccccc4nc4ccccc34)CC2)cc1`: 117 nM; for `CN(C)CCOc1ccc(-c2cc(-c3ccc(Cl)c(O)c3)c(-c3ccncc3)o2)cc1`: 1450 nM.
Same read-out and setting: the same measure for `CN(C)C1CCN(Cc2ccc(N3CCN(Cc4cccc5[nH]ccc45)CC3)nc2)CC1`: 1530 nM.
Under “Plasmodium falciparum, 3D7”, `OC(CNCc1ccccc1OCc1ccccc1)c1cccc(Br)c1` (configuration not stated) gave an XC50 of 643 nM.
Under “Plasmodium falciparum, 3D7”, `Oc1ccc(Cc2cc(Oc3c(I)cc(CCc4ncc[nH]4)cc3I)ccc2O)cc1` gave an XC50 of 712 nM.
As for `CCC(C)(C)c1ccc(OCC(O)CN2CCCCC2)c(C(C)(C)CC)c1` (configuration not stated), the XC50 (Plasmodium falciparum, 3D7) came to 1300 nM.
The compound `Fc1cccc(Cl)c1-c1nc(NCCC(c2ccccc2)c2ccccc2)no1` had an XC50 (Plasmodium falciparum, 3D7) of 546 nM.
Still for that read-out and setting: the same measure for `O=C(Nc1ccc(Oc2ccccc2)cc1)N(CCN1CCCC1)Cc1ccc(-c2ccc(CN3CCNCC3)cc2)cc1`: 892 nM; for `COc1ccc(-c2ccnc(-c3cccc(-c4ccccn4)n3)c2)cc1`: 824 nM.
The compound `Nc1ncc(-c2cn[nH]c2)cc1-c1nc2ccc(Cl)cc2[nH]1` returned an XC50 (Plasmodium falciparum, 3D7) of 799 nM.
The same measure, in the same setting: the same measure for `O=C(Nc1ccc(-c2cccc(CN3CCC(O)CC3)c2)cc1)c1cccc(Cl)c1`: 826 nM.
`COc1ccc(-c2ccc([N+](=O)[O-])cc2C(=O)NCC(C)Oc2ccc(C(F)(F)F)cc2)cc1` (configuration not stated): the XC50 (Plasmodium falciparum, 3D7) stood at 550 nM.
In the case of `Cc1c(Cc2ccccc2Br)cnc2nc(N)nc(N)c12`, the XC50 (Plasmodium falciparum, 3D7) amounted to 4.62 nM.
The same measure, in the same setting: the figure for `FC(F)(F)c1ccc(N2CCCN(Cc3cccc(-c4ccccc4CNCc4ccc5c(c4)OCO5)c3)CC2)nc1` is 1190 nM.
Turning to `COc1ccc(C2N=C(N)N=C(N)N2c2ccc(Cl)cc2)cc1OC` (configuration not stated), the XC50 (Plasmodium falciparum, 3D7) was 1000 nM.
For the compound `Cc1cccc(C(=O)Nc2ccnc(N3CCCN(Cc4cccc(O)c4)CC3)c2)c1`, the XC50 (Plasmodium falciparum, 3D7) is 1210 nM.
On the same count and under the same terms, the figure for `Cc1ccc(C)c2sc(N3CCN(C(=O)c4ccc([N+](=O)[O-])o4)CC3)nc12` is 819 nM; for `CN1CCCC(CN2CCN(Cc3ccc(-c4cccc(-c5nc6cc(F)ccc6[nH]5)c4)cc3)CC2)C1` (configuration not stated) it is 184 nM.
`Clc1ccccc1OCc1ccccn1` gave an XC50 (Plasmodium falciparum, 3D7) of 994 nM.
On the same count and under the same terms, the figure for `COc1ccc2c(N/N=C/c3ccccc3[N+](=O)[O-])ccnc2c1` is 739 nM; for `CCN(CC)CCN(Cc1ccc(-c2ccc(C(F)(F)F)cc2)cc1)C(=O)Cn1c(CCc2ccc(F)c(C#N)c2)nc(=O)c2ccccc21` it is 769 nM; for `O=[N+]([O-])c1cccc(CNC2CCN(Cc3ccc(-c4ccccc4)cc3)CC2)c1` it is 231 nM.
Compound `Cc1cccc(-c2nn(-c3ccccc3)c3[nH]c(=O)c(CN4CCSCC4)cc23)c1` showed an XC50 (Plasmodium falciparum, 3D7) of 1010 nM.
Same read-out and setting: the figure for `COc1cc(C(=O)NCCCN2CCN(c3cccc(Cl)c3)CC2)ccc1-c1cc2cc(Cl)c(Cl)cc2[nH]1` is 468 nM; for `Cc1cccc(Nc2nccc(NCC(O)c3cccc(C(F)(F)F)c3)n2)c1` (configuration not stated) it is 514 nM.
The same measure, in the same setting: the figure for `Cn1nc(-c2ccc(NC(=O)Nc3cc(C(F)(F)F)ccc3F)c(F)c2)c2cnc(NCCCN3CCOCC3)nc21` is 604 nM; for `COc1ccc(-c2csc3ncnc(Cl)c23)cc1OC` it is 769 nM.
The same measure, in the same setting: the same measure for `O=C(Nc1ccon1)c1cc(-c2cccnc2)nc2ccc(Br)cc12`: 744 nM.
Compound `COCC(=O)N(Cc1ccccc1-c1cccc(CNCc2ccc3c(c2)OCO3)c1)C1CCN(Cc2ccccc2)CC1` gave an XC50 (Plasmodium falciparum, 3D7) of 842 nM.
